What was measured:
[1] = Pharmacokinetics of noribogaine in healthy male volunteers (plasma, urine, LCMSMS)
[2] = tested on: adult wild type short-fin zebrafish; assay: Zebrafish novel tank test (NTT), anxiety-related endpoints; type: in vivo
Description: A total of 60 adult wild type short-fin zebrafish (˜50:50 male:female ratio) were used in this study. Fish were housed in groups of 20-30 fish per 40-L tank. Tanks were filled with filtered water and maintained at 25° C. Illumination (1000-1100 1×) was provided by ceiling-mounted fluorescent lights on a 12-h cycle (on: 6.00 h, off: 18.00 h) according to the standards of zebrafish care. All fish used in this study were experimentally naïve and fed Tetramin Tropical Flakes (Tetra USA, Blacksburg, Va.) twice a day. Following behavioral testing, the animals were euthanized in 500 mg/L Tricaine (Sigma-Aldrich, St. Louis, Mo.) buffered to pH=7.0. Animal experimentation in this study fully adhered to national and institutional guidelines and regulations.
As such, a 1 mg/L dose of noribogaine (DMX1 or Cpd) was chosen. A standard 20-min pre-treatment time was chosen based on experience with a wide range of other neuroactive compounds and the results of pilot studies. This exposure time was also sufficient for provoking physiological (e.g., cortisol and c-fos) responses of zebrafish to multiple drugs. Noribogaine exposure in this study was performed by submerging individual zebrafish in a 1-L plastic beaker for 20 min prior to the testing. The solution was regularly changed after each exposure, to ensure that each fish is exposed to a consistent concentration of noribogaine. Control fish were exposed to noribogaine-free water for the same treatment time, as described above.
Apparatus: Behavioral testing was performed between 11:00 and 15:00 h using tanks with water adjusted to the holding room temperature (25° C.). The study used the novel tank test (NTT) protocol. NTT represents one of the most commonly used neurophenotyping tests for adult zebrafish. To avoid the test battery or handling effects, each assay was performed once, on a separate individual naïve fish each time. Prior to testing, fish were pre-exposed individually in a 1-L plastic beaker for 20 min to either noribogaine-treated or noribogaine-free water. During testing, zebrafish behavior was recorded by two trained observers blind to the treatments, who manually scored different behavioral endpoints (inter- and intra-rater reliability in all experiments >0.85) with subsequent automated analysis of generated traces by Ethovision XT8.5 software (Noldus IT, Wageningen, Netherlands). The NTT, used to assess zebrafish anxiety and locomotion, was a 1.5-L trapezoidal tank (15 cm height×28 cm top×23 cm bottom×7 cm width; Aquatic Habitats, Apopka, Fla.) maximally filled with water and divided into two equal virtual horizontal portions by a line marking the outside walls. Fish were individually pre-exposed to water (water control) or noribogaine (1, 5 and 10 mg/L) for 20 min and tested in the standard 5-min NTT.
Behavioral analyses: Zebrafish behavior was recorded by trained observers, scoring the latency to reach the top half of the tank(s), time spent in top(s), number of transitions to top, as well as the number and duration(s) of freezing bouts. Freezing was defined as a total absence of movement, except for the gills and eyes, for >2 s. Trials were also recorded to a computer using a USB webcam (2.0-megapixel, Gigaware, UK) and subsequently analyzed by Ethovision XT8.5, assessing distance traveled (m), velocity (m/s), and meandering endpoints. During manual observation, videos were recorded in MPEG1 format with the maximum sample rate 30 fps for each trial by auto-focusing 2.0 MP USB webcams, placed 25 cm in front of the tanks, and attached to laptop computers. Recorded videos were analyzed with Ethovision XT8.5 software. All environments were calibrated for each arena and the calibration axes were placed to designate the origin (0,0) at the center of each tank. The track data for each fish was exported as raw data into separate spreadsheets. […]

[3] = tested on: healthy, drug-free male volunteers; assay: Pupillometry (pupillary miosis) in healthy volunteers; type: in vivo, human; conditions: 3-60 mg single oral dose, vs placebo p>0.9
Description: Pulse oximetry and capnography data were collected continuously using a GE Carescape B650 monitoring system from 2 hours prior to dosing and until six hours after dosing, and thereafter at 12, 24, 48 and 72 hours post-dosing. […] Pupillary miosis was assessed by pupillometry.

[4] = 30 mg single oral dose, plasma, mean (SD), n = 6

CC[C@H]1CC2C[C@H]3c4[nH]c5ccc(O)cc5c4CCN(C2)C13 [noribogaine]
CL/F ([1]; 3 mg single oral dose, plasma, mean (SD), n = 6): 41.4 (7.0) L/h
CL/F ([1]; 10 mg single oral dose, plasma, mean (SD), n = 6): 42.3 (12.0) L/h
CL/F [1, 4]: 46.9 (16.4) L/h
Tmax [1, 4]: 1.8 (0.6) hr
CL/F ([1]; 60 mg single oral dose, plasma, mean (SD), n = 6): 34.0 (11.4) L/h
dose dependence of Cmax and AUC ([1]; 3-60 mg): increased linearly with dose
mean half-life estimates ([1]; across dose groups 3-60 mg): 28 to 50 h
time of peak concentrations after oral dosing ([1]; across dose groups 3-60 mg): 2 to 3 h
volume of distribution ([1]; across dose groups 3-60 mg): 1417 to 3086 L
anxiolytic-like behavior ([2]; 1 mg/L): robust anxiolytic-like behavior without any overt hyperactivity/hypoactivity or circling behaviors
efficacy, pilot experiments ([2]; 1 mg/L): sub-maximal efficacy
distance moved and velocity ([2]; 1-, 5- and 10-mg/L): moderate, but non-significant, decrease
freezing bouts frequency and duration of freezing ([2]; 1-, 5- and 10-mg/L): no difference in freezing bouts frequency
movement mobility (HF hi-mobility events) ([2]; 1-, 5- and 10-mg/L): dose-related disappearance of HF hi-mobility events
transitions to upper half of the tank ([2]; 1-, 5- and 10-mg/L vs control): none of the treatment groups showed a statistically significant change
overall turning rates and patterns (meander total) ([2]; 5- and 10-mg/L): statistically significant decrease in overall turning rates and patterns (meander)
swimming motor activity, pilot experiments ([2]; 5- and 10-mg/L): caused reduction in selected swimming motor activity levels
number of top transitions ([2]; 5 and 10 mg/L (control 10)): ~7
EC50 ([2]; Danio rerio, 20 min, water immersion 20 min, read-out: half-efficacy on indices of anxiety levels (time in top, latency in top)): < 1 µg/mL
time spent in top portion of the tank ([2]; each of 1-, 5- and 10-mg/L): statistically significant increase in the duration of time spent in the defined top portion of the tank
latency to the upper half of the tank ([2]; each of 1-, 5- and 10-mg/L, 20 min immersion, 5-min NTT): statistically significant decrease in latency to the upper half of the tank
turning/rotation rate ([2]; significant at the 10 mg/L dose): decrease in turning/rotation rate
pupillary constriction (pupil diameter) [3]: no evidence of pupillary constriction

Source: patent publication US20160038505A1, “METHODS AND COMPOSITIONS FOR TREATING IMPULSE CONTROL DISORDER, ANXIETY-RELATED DISORDERS, VIOLENCE AND/OR ANGER, OR REGULATING FOOD INTAKE” (priority 2014, published 2016)
